# Laboratory results: US9487551B2, “Small molecule compounds that control mammal-pathogenic nematodes” (California Institute of Technology, priority 2011, dated 2016)
# Entries after “also recorded” stand apart in the source; their conditions may differ.
# Columns and labels:
# C. elegans dauer larvae = experiment: Dispersal assay; format: in vivo; settings: physiological concentration; 0.25% E. coli added; food-only control approximately 35%
# Experimental: C. elegans dauer juveniles were washed with MILLI-Q water 3 times, placed into 6 cm petri dishes with a small amount of water, and rested overnight. Approximately 200-300 nematodes in 10 μl of water were placed on an agar plate, to which 2 μl of treatment was added. The liquid culture that produced 60% dauer animals was centrifuged, filtered with a 0.45 μm filter, and used as a positive control for dispersal. Thereafter, media were lyophilized and resuspended in MILLI-Q water 5 times. 2 μl to 10 μl of nematode suspension was used for the assay. As a negative control, 0.5% E. coli (HB101) was prepared in S-complete, lyophilized, and adjusted to the final volume of 0.25% E. coli in the assay.
# Nematodes were quantified using Image J software (Image Processing and Analysis in Java, National Institutes of Health). The number of nematodes visualized and counted using Image J is illustrated in FIG. 63B. Nematodes inside the circle were subtracted manually from the total number of worms counted because of the location of their placement. Each treatment was replicated 9-11 times. The graph was normalized to the positive control, the dauer conditioned medium.
# A synthetic blend of these ascarosides was then tested for dispersal activity, using the dauer conditioned medium as a positive control. The media was estimated to contain approximately half of the original 0.5% E. coli (HB101) food source. […]
# C. elegans males = experiment: Attraction assay (long-range, point source); format: in vivo; settings: 10 cm plate
# Experimental: 10 cm standard chemotaxis plates were prepared (Bargmann et al., Cell 74:515-27 (1993), which is hereby incorporated by reference in its entirety) and stored at 4° C. until the day before use. Standard 1 cm-diameter copper pipes were sectioned into 1 cm-tall segments to use for the holding chambers. The females/hermaphrodites were isolated overnight, washed 3 times in M9 buffer, and then allowed to wander on a plate pre-conditioned with 50 uL of 1000× treptomycin for 2 hours to kill any bacteria that might produce a false positive attractant. The nematodes were then washed 3 times, and the supernatant from the last wash was placed in a copper chamber, as the control, 1 cm from the border of the 10 cm plate. The nematodes were suspended in M9 within the copper chamber, 1 cm from the border opposite the control chamber. After 6 hours, they were subsequently removed and replaced with 3 μL of 1M sodium azide. 100 C. elegans adult males were isolated overnight, washed several times in ddH2O, and placed at the center of the agar plate. After several hours, males paralyzed within 2 cm of each region were scored. The Chemotaxis Index (Bargmann et al., Cell 74:515-27 (1993), which is hereby incorporated by reference in its entirety) was then used to score male chemotaxis to either point source.
# C. elegans [1] = experiment: Ascaroside function (Table 12); format: in vivo, Caenorhabditis elegans; parameters: key to Attract Females/Herm. / Promote Dauer Formation / Attract Males: A very strong result of affecting nematode behavior is designated in the table as “strong.”; settings: listed = has this function
# Experimental: (§1) Various ascarosides and ascaroside blends were administered to various nematodes described below (Table 12). […] A very strong result of affecting nematode behavior is designated in the table as “strong.”
# S. feltiae = experiment: Ascaroside function (Table 12); format: in vivo, Steinernema feltiae; settings: listed = has this function
# Experimental: as §1
# C. elegans [2] = settings: cited from earlier work
# C. elegans [3] = settings: in vivo; cited from earlier work
# C. elegans [4] = experiment: Spot attraction assay; format: in vivo
# Experimental: The spot attraction assays were conducted according to a previously reported method (Pungaliya et al., PNAS 106:7708-13 (2009); Srinivasan et al., Nature 454:1115-18 (2008), which are hereby incorporated by reference in their entirety). For both C. elegans hermaphrodites and males, 50-60 worms were harvested daily at the fourth larval stage (L4) and stored segregatedly by sex at 20° C. overnight, to be used as young adults the following day. For the competition experiments, two conditions were used: 120 nM ascr#3 and 10 nM icas#3 (Condition 1), or 12 μM ascr#3 and 1 μM icas#3 (Condition 2) in water containing 10% ethanol. Aliquots were stored at −20° C. in 20 μL tubes. 10% ethanol in water was used as control.
# Attraction assays with hbas#3 were conducted as previously reported (Srinivasan et al., Nature 454:1115-18 (2008); Pungaliya et al., Proc. Natl. Acad. Sci. U.S.A. 106:7708-13 (2009), which are hereby incorporated by reference in their entirety). For the attraction assays, 50-60 hermaphrodite worms were harvested daily at the early fourth larval stage (L4) and stored at 20° C. overnight to be used as young adults the following day. Hbas#3 was dissolved in water containing 10% ethanol. Aliquots were stored at −20° C. in 20 μL tubes. 10% ethanol in water was used as control.
# C. elegans [5] = experiment: Aggregation assay; format: in vivo
# Experimental: Aggregation behavior of worms was measured using assays reported in de Bono & Bargmann, Cell 94:679-89 (1998), which is hereby incorporated by reference in its entirety. Aggregation assays were conducted on standard NGM plates. Plates containing indole ascarosides were made by adding the indole ascaroside stock solution to the NGM media before they were poured onto the plates. These plates were dried at room temperature for 2 to 3 days. Control plates were treated similarly, except that ethanol solutions instead of icas solutions were added to the plates, corresponding to the amount of ethanol introduced via the icas solutions. Final ethanol concentrations of the plates were below 0.1% for all conditions. After drying, both control plates and plates containing indole ascarosides were seeded with 150 μl of an overnight culture of E. coli OP50 using a micropipette, and were allowed to dry for 2 days at room temperature. For “low worm density” experiments, 20 worms were placed onto the lawn and left at 20° C. for 3 hours. For “high worm density” experiments, approximately 120 worms were placed onto the bacterial lawn and left at 20° C. for 3 hours. Aggregation behavior was quantified as the number of animals that were in touch with two or more animals at greater than 50% of their body length.
# [6] = test system: P. redivivus males and females; experiment: Retention assay; format: in vivo
# Experimental: (§2) OP50 E. coli was grown on a standard 5 cm agar plate (made with standard Nematode Growth Medium). The bacterial lawn was 16 mm in diameter and was grown overnight at 20° C. before being used in trials. Two 4 mm spots (0.6 μL) were placed on opposite sides of the bacterial lawn (using a transparent template to guide spot placement), and several minutes elapsed for the liquid to settle in before placing nematodes down on the assay. Recording began immediately upon worm placement. 0.6 μL of the control was placed on one side of the lawn, and 0.6 μL of the experimental cue was placed on the other side of the lawn, changing the location of the cue throughout trials between left/right and top/bottom to avoid bias.
# (§3) Nematodes were isolated by gender at the L4 stage the day before being used in trials as developed adults. Worms were evenly divided and placed at two points equidistant from the foci of the scoring region. Trials were recorded for 20 minutes, and frames were collected for analysis at 1 frame per second. Results were averaged from at least three different trials. For every nematode species in this study, a different total number of worms (using water in both scoring regions) was tested to determine the minimum number of worms necessary for consistent unbiased results over a 20 minute trial. The total number of worms used in the multiple species assays depended on that species' optimal parameters. 10 worms were used for P. redivivus males and females, 20 worms were used for C. elegans males and O. dolichuridae males, and 14 worms were used for S. glaseri males. The Automated Software was used to compare worm occupancy in each scoring region over time, and the Chemotaxis Index (Bargmann et al., Cell 74:515-27 (1993), which is hereby incorporated by reference in its entirety) was adapted to score preference or avoidance to each ascaroside.
# (§4) A video camera attached to the microscope produced a digital video stream, which was then analyzed. The ratio of the time the average worm spent in each region of interest was calculated for every trial. For ease of implementation, all worms in a single experiment were assumed to be roughly the same size. Thus worm pixels were counted instead of whole worms, allowing fractions of a worm in the region of interest to be taken into account. It also eliminated the need for a shape-based worm identification algorithm, and allowed each frame to be analyzed independently. A band-pass filter was applied to each frame to eliminate the effect of uneven lighting and also accentuate the worms against the background. The worm was then identified after thresholding the filtered image. Throughout each experiment, the locations and sizes of the regions of interest were known. Through the filtering described above, it is known which pixels are occupied by worms and which ones are not. Thus, the ratio of worm-pixels to all pixels inside the region of interest can be calculated to produce the worm-occupancy ratio. This calculation was done for every frame, giving a plot output of worm-occupancy ratio vs. time for each region.
# Panagrellus redivivus = experiment: Ascaroside function (Table 12); format: in vivo; settings: listed = has this function
# Experimental: as §1
# [7] = test system: Several of the tested nematode species; experiment: Retention assay; format: in vivo; settings: 1 nM, 1 μM and 1 mM tested
# Experimental: as §2, §3, §4
# S. glaseri = experiment: Ascaroside function (Table 12); format: in vivo; settings: listed = has this function
# Experimental: as §1
Structure (SMILES),"dispersing nematodes, normalized to the percent of the positive control response (C. elegans dauer larvae) [%]",male attraction from a distance (C. elegans males),Attract Males (C. elegans [1]),"Dispersal (of dauer larvae, infectious juveniles) (C. elegans [1])",Promote Dauer Formation (C. elegans [1]),"Dispersal (of dauer larvae, infectious juveniles) (S. feltiae)",dauer-inducing activity (C. elegans [3]),also measured
CC(=O)CCC[C@@H](C)O[C@@H]1O[C@@H](C)[C@H](O)C[C@H]1O [ascr#2],40,chemotax towards,ascr#2,ascr#2,ascr#2 ([strong]),ascr#2,individually promote dauer entry,amount as low as which elicited C. elegans male attraction (C. elegans males): 500 attomol; most active amount for attraction (C. elegans [2]; from 1 μM concentration): ~1 pmol
C[C@H](CCC(=O)O)O[C@@H]1O[C@@H](C)[C@H](OC(=O)c2c[nH]c3ccccc23)C[C@H]1O [icas#9],–,–,([strong]),–,icas#9,icas#9,moderate dauer-inducing activity; also recorded: individually promote dauer entry,"attraction in spot attraction assay (C. elegans [4]; 1 pmol (high concentrations), N2 hermaphrodites and him-5 males): attractive to both C. elegans sexes; also recorded: attracted both males and hermaphrodites; attraction of hermaphrodites (C. elegans [4]; low concentrations, N2 hermaphrodites): strongly attracted; attraction of males (C. elegans [4]; low concentrations, males): males are not attracted; aggregation of solitary and social hermaphrodites (C. elegans [5]; constant background concentration): increased aggregation; also recorded: strongly increased the propensity; concentration window for hermaphrodite attraction and aggregation (C. elegans [5]; in vivo): femtomolar to picomolar; response of P. redivivus males [6]: no response; Attract Females/Herm. (C. elegans [1]): icas#9 ([strong]); Repel Females/Herm. (Panagrellus redivivus): icas#9; aggregation (C. elegans [2]; in vivo): aggregating stimulant"
C[C@H](CC/C=C/C(=O)Nc1ccc(C(=O)O)cc1)O[C@@H]1O[C@@H](C)[C@H](O)C[C@H]1O [ascr#8],50,not active,ascr#8,ascr#8,ascr#8 ([strong]),ascr#8,individually promote dauer entry,preference for ascaroside-conditioned areas [7]: preferred areas conditioned; Attract Females/Herm. (Panagrellus redivivus): ascr#8; Attract Males (Panagrellus redivivus): ascr#8; Attract Males (S. glaseri): ascr#8; male attraction (C. elegans [2]; in vivo): major component of the male-attracting signal
